In the supplement of paper PMC11208160:

Experiment: recombinant barcode read abundance after kanamycin selection (control-corrected) (log10(CPM+1)); higher = more efficient recombination; sequences stand for … in AGTGCAGAGAAAATCGGCCAGTTTTCTCTGCCTGCAGTCCGCATGCCGT…AGATTTATGCAGCGGACTGCCTTTCTCCCAAAGTGATAAACCGGACAGTATCATGGACCGGTTTTCCCGGTAATCCGTATTTGCAAGGTTGGTTTCACT; site = the 11-nt target
Summary of the method: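 Values are log10(CPM+1) from a pooled E. coli screen of targets paired with IS621 bridge RNA target-binding loops. Recombination efficiency here means counts per million of recombinant-junction barcodes, averaged and control-corrected. Plates were chloramphenicol/ampicillin LB agar for the control and chloramphenicol/ampicillin/kanamycin with 0.1 mM IPTG, two replicates each.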
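Note: IS621 recombinase and bridge RNA in Escherichia coli cells.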

Sequence | recombinant barcode read abundance (log10)
CCGCATGCTTGGGTTCTAACCTGTTGCCT (site CCGAATGCTAG) | 0.0372
CAAATCCCTTGGGTTCTAACCTGTTGCGT (site ATCGAGTCTTG) | 0.174
CCAAGGGCTTGGGTTCTAACCTGTTGCAG (site CCAAGGGCTCC) | 0.546
CAAAGATCTTGGGTTCTAACCTGTTGCCT (site CCAAGATCTAG) | 0
GTGGTGGCTTGGGTTCTAACCTGTTGCCT (site GTTGGGGCTAG) | 0.151
CAGTACTCTTGGGTTCTAACCTGTTGCCT (site CAGTAGTCTAG) | 0.1
GTACGATCTTGGGTTCTAACCTGTTGCGG (site CCTTCTCCTAT) | 0.0115
TAGGTTCCTTGGGTTCTAACCTGTTGCCT (site TAGGTTCCTAG) | 0.348
GACTAAGCTTGGGTTCTAACCTGTTGCGG (site GACTAAGCTCC) | 2.39
GTATATACTTGGGTTCTAACCTGTTGCCT (site GTTTATACTAG) | 0.00506
AGCAGAGCTTGGGTTCTAACCTGTTGCAG (site AGCAGAGCTCT) | 2.24
GAGACAGCTTGGGTTCTAACCTGTTGCCT (site GAGACAGCTAG) | 1.54
CCTCGAGCTTGGGTTCTAACCTGTTGCGG (site TCTAGAGCTCC) | 0.184
TCCGAAGCTTGGGTTCTAACCTGTTGCTA (site TCCCAAGCTTA) | 0.264
CATAGGGCTTGGGTTCTAACCTGTTGCCG (site CATAGAGCTAG) | 0.0324
GCAGGTGCTTGGGTTCTAACCTGTTGCTT (site ATTTCGACTCC) | 0.0721
GGTCCTGCTTGGGTTCTAACCTGTTGCCT (site TGTCCTGCTAG) | 0.174
GAGGAAGCTTGGGTTCTAACCTGTTGCCT (site GAGGAAGCTAG) | 1.81
CAACGGCCTTGGGTTCTAACCTGTTGCCT (site CAAAGGCCTAG) | 0
CCTAAACCTTGGGTTCTAACCTGTTGCGT (site CCTAACCCTAC) | 0.0278
CCAGCTGCTTGGGTTCTAACCTGTTGCCT (site CCAGCTGCTAG) | 1.11
GAGACTGCTTGGGTTCTAACCTGTTGCCT (site GAGACTGCTAG) | 0.865

Sequence | recombinant barcode read abundance (log10)
ACAGTATCTTGGGTTCTAACCTGTTGCTG (site TGCAATACTAT) | 0
ACAATGACTTGGGTTCTAACCTGTTGCCT (site ACAATGACTAG) | 0.904
GCCCGAACTTGGGTTCTAACCTGTTGCCT (site GCTCGAACTAG) | 0.101
TGCATAGCTTGGGTTCTAACCTGTTGCAG (site CTGCAGTCTTG) | 0.00928
AAATGACCTTGGGTTCTAACCTGTTGCGT (site AAATGACCTAC) | 2.66
GCCTCGCCTTGGGTTCTAACCTGTTGCAG (site GCCGCGCCTCT) | 0.326
GATTATTCTTGGGTTCTAACCTGTTGCCT (site GAATATTCTAG) | 0.0621
GTCAGCTCTTGGGTTCTAACCTGTTGCTA (site GTCAGCTCTTA) | 1.16
CGAGTGACTTGGGTTCTAACCTGTTGCCA (site TTCCGTCCTAA) | 0.382
TCTCAGCCTTGGGTTCTAACCTGTTGCCT (site TCTCTGCCTAG) | 0.0307
GAGGAACCTTGGGTTCTAACCTGTTGCCT (site CAGGAACCTAG) | 1.28
GGTCGGGCTTGGGTTCTAACCTGTTGCCT (site GGTCGCGCTAG) | 0.315
TATTCTCCTTGGGTTCTAACCTGTTGCTT (site TATTCTCCTAA) | 0.266
TAGTGAGCTTGGGTTCTAACCTGTTGCCG (site GCCCATCCTTA) | 0.065
ACGCACGCTTGGGTTCTAACCTGTTGCGG (site ACACACCCTCC) | 0.0809
CAAACCGCTTGGGTTCTAACCTGTTGCCT (site CTAACCGCTAG) | 0.117
CACTTGGCTTGGGTTCTAACCTGTTGCAG (site CACTGGGCTCT) | 0.468
TCCCGGACTTGGGTTCTAACCTGTTGCCT (site TCCCGGACTAG) | 0.892
TCCGTGGCTTGGGTTCTAACCTGTTGCCT (site TCCGTGGCTAG) | 0.916
CACCCACCTTGGGTTCTAACCTGTTGCCT (site TACCCACCTAG) | 0.0304
AGAGAGACTTGGGTTCTAACCTGTTGCCT (site AGAGTGACTAG) | 0.185
CGACACTCTTGGGTTCTAACCTGTTGCCT (site CCACACTCTAG) | 0.164

Sequence | recombinant barcode read abundance (log10)
GAGCCACCTTGGGTTCTAACCTGTTGCCA (site GAGCAACCTCG) | 0.0457
ATCGGAACTTGGGTTCTAACCTGTTGCCT (site ATCGGAGCTAG) | 0.13
GAGCTTACTTGGGTTCTAACCTGTTGCCT (site GTGCTTACTAG) | 0.158
GAAGTCCCTTGGGTTCTAACCTGTTGCCT (site AAAGTCCCTAG) | 0.558
GCCTCGCCTTGGGTTCTAACCTGTTGCAG (site GCCTCGCCTCT) | 0.229
GAAGTGCCTTGGGTTCTAACCTGTTGCCT (site GAAGTGCCTAG) | 1.92
CATAGAGCTTGGGTTCTAACCTGTTGCCT (site CATAGAGCTAG) | 0.648
ATCTTGTCTTGGGTTCTAACCTGTTGCCT (site ATCTTGTCTCG) | 0.0162
CGTATGGCTTGGGTTCTAACCTGTTGCCT (site CGTGGGGCTAG) | 0.279
GAAATGTCTTGGGTTCTAACCTGTTGCCT (site GCAATGTCTAG) | 0.0338
CTAACTCCTTGGGTTCTAACCTGTTGCCT (site ATACCTCCTAG) | 0.242
AAGATACCTTGGGTTCTAACCTGTTGCTG (site AAGATACCTAA) | 0.283
CGACACTCTTGGGTTCTAACCTGTTGCCT (site CTACACTCTAG) | 0.0214
TCCGTGTCTTGGGTTCTAACCTGTTGCCT (site TCCGTGTCTAG) | 2.24
TTAGAGTCTTGGGTTCTAACCTGTTGCCT (site TTAGAGGCTAG) | 0.126
TTCTGAACTTGGGTTCTAACCTGTTGCCT (site TTCTGAACTAG) | 0.126
TCCGGTTCTTGGGTTCTAACCTGTTGCCT (site ACGGGTTCTAG) | 0.0897
CCTGGGCCTTGGGTTCTAACCTGTTGCTT (site CCTGGGCCTAA) | 0.686
CAAGTGGCTTGGGTTCTAACCTGTTGCCT (site CAAGTGGCTAG) | 1.21
ACGTTACCTTGGGTTCTAACCTGTTGCCT (site ACGATACCTAG) | 0.331
GGGGACCCTTGGGTTCTAACCTGTTGCGA (site GGGGACCCTAC) | 1.74
CTAGTAGCTTGGGTTCTAACCTGTTGCCG (site CTAGTAGCTCG) | 1.84

Sequence | recombinant barcode read abundance (log10)
GGTACGCCTTGGGTTCTAACCTGTTGCGT (site GGTACGCCTAC) | 0.248
GGGGCCTCTTGGGTTCTAACCTGTTGCAG (site GGGGCCTCTCT) | 3.05
TTGACGACTTGGGTTCTAACCTGTTGCCA (site TTGCCGACTTG) | 0.217
TCGAGTGCTTGGGTTCTAACCTGTTGCAG (site CTACTATCTAC) | 0.0294
CAGTACTCTTGGGTTCTAACCTGTTGCCT (site CAGTAATCTAG) | 0.122
TCCTGAGCTTGGGTTCTAACCTGTTGCTG (site TCCTTAGCTCG) | 0.0103
CTACGACCTTGGGTTCTAACCTGTTGCGG (site TACAAGTCTAG) | 0.164
CGTCAGACTTGGGTTCTAACCTGTTGCCT (site CGTCAGACTAG) | 0.109
TAGTTAGCTTGGGTTCTAACCTGTTGCCT (site TAGTTAGCTGG) | 0.251
CTAACCTCTTGGGTTCTAACCTGTTGCAT (site CTATCCTCTAT) | 0.0287
AGGAAGACTTGGGTTCTAACCTGTTGCGG (site AGGAAGACTCC) | 3.01
CAAACAGCTTGGGTTCTAACCTGTTGCCT (site CAAACAGCTAG) | 0.824
CTACGCGCTTGGGTTCTAACCTGTTGCTT (site GTACGCGCTAC) | 0.309
CATGATTCTTGGGTTCTAACCTGTTGCCT (site CATAATTCTAG) | 0.0239
GTGAGGACTTGGGTTCTAACCTGTTGCGT (site GTGAGGACTAC) | 3.11
GCACCACCTTGGGTTCTAACCTGTTGCCT (site GCACAACCTAG) | 0.0145
TCCCGCCCTTGGGTTCTAACCTGTTGCCT (site TCCCGCCCTAG) | 0.464
ACCAGGTCTTGGGTTCTAACCTGTTGCCT (site AACAGGTCTAG) | 0.15
AAGTCTCCTTGGGTTCTAACCTGTTGCCT (site AAGACTCCTAG) | 0.134
ACTACTCCTTGGGTTCTAACCTGTTGCAG (site ACTACTCCTCT) | 0.461
